Results as given in ChEMBL document CHEMBL3885861, “Open TG-GATES”.

Species on record: Rattus norvegicus
Assay: Open TG-GATES - Regimen: Single
Assay type: toxicity, organism-based, Sprague-Dawley
Set-up: regimen Single, gender Male, age 6 weeks
Details: in vivo, po, 0 mg/kg, route gavage, dose level Control; for APTT / Bas / Eos / Fbg / Hb / Ht / Lym / MCH / MCHC / MCV / Mono / Neu / PT / Plat / RBC / Ret / WBC: tissue Blood; for KIDNEY_L / KIDNEY_R / KIDNEY_TOTAL: tissue Kidney; for LIVER: tissue Liver; for A/G / ALP / ALT / AST / BUN / CRE / Ca / Cl / DBIL / GLC / IP / K / LDH / Na / PL / RALB / TBIL / TC / TG / TP / gamma-GTP: tissue Plasma

SMILES: CCC1(c2ccccc2)C(=O)NC(=O)NC1=O [PHENOBARBITAL]
- TERMINAL_BW (3 h): 221.7 g
- APTT (3 h): 19.3 s
- Bas (3 h): 0.4%
- Eos (3 h): 1%
- Fbg (3 h): 219.2 mg/dL
- Hb (3 h): 13.6 g/dL
- Ht (3 h): 37.5%
- Lym (3 h): 72.8%
- MCH (3 h): 21.7 pg
- MCHC (3 h): 36.1%
- MCV (3 h): 60.2 fL
- Mono (3 h): 3%
- Neu (3 h): 21.6%
- PT (3 h): 11.9 s
- Plat (3 h): 113.7 x10_4/uL
- RBC (3 h): 623.8 x10_4/ul
- Ret (3 h): 7.9%
- WBC (3 h): 110.8 x10_2/uL
- KIDNEY_L (3 h): 1.1 g
- KIDNEY_R (3 h): 1 g
- KIDNEY_TOTAL (3 h): 2.1 g
- LIVER (3 h): 10.2 g
- A/G (3 h): 1.6
- ALP (3 h): 939.8 IU/L
- ALT (3 h): 38.4 IU/L
- AST (3 h): 73.4 IU/L
- BUN (3 h): 10.8 mg/dL
- CRE (3 h): 0.4 mg/dL
- Ca (3 h): 10.6 mg/dL
- Cl (3 h): 103.4 meq/L
- DBIL (3 h): 0.068 mg/dL
- GLC (3 h): 203.2 mg/dL
- IP (3 h): 9.4 mg/dL
- K (3 h): 4.2 meq/L
- LDH (3 h): 162.6 IU/L
- Na (3 h): 141.6 meq/L
- PL (3 h): 140.4 mg/dL
- RALB (3 h): 3.3 g/dL
- TBIL (3 h): 0.1 mg/dL
- TC (3 h): 78 mg/dL
- TG (3 h): 55 mg/dL
- TP (3 h): 5.3 g/dL
- gamma-GTP (3 h): 0.8 IU/L
- TERMINAL_BW (6 h): 218.3 g
- APTT (6 h): 19 s
- Bas (6 h): 0.2%
- Eos (6 h): 1%
- Fbg (6 h): 227.8 mg/dL
- Hb (6 h): 14 g/dL
- Ht (6 h): 39.1%
- Lym (6 h): 73.6%
- MCH (6 h): 21.4 pg
- MCHC (6 h): 35.9%
- MCV (6 h): 59.5 fL
- Mono (6 h): 3.2%
- Neu (6 h): 21.4%
- PT (6 h): 12.2 s
- Plat (6 h): 119.4 x10_4/uL
- RBC (6 h): 656.8 x10_4/ul
- Ret (6 h): 8.1%
- WBC (6 h): 105 x10_2/uL
- KIDNEY_L (6 h): 1 g
- KIDNEY_R (6 h): 1 g
- KIDNEY_TOTAL (6 h): 2 g
- LIVER (6 h): 9.6 g
- A/G (6 h): 1.6
- ALP (6 h): 907.4 IU/L
- ALT (6 h): 34.4 IU/L
- AST (6 h): 70.2 IU/L
- BUN (6 h): 9.8 mg/dL
- CRE (6 h): 0.4 mg/dL
- Ca (6 h): 10.8 mg/dL
- Cl (6 h): 103.8 meq/L
- DBIL (6 h): 0.074 mg/dL
- GLC (6 h): 193.2 mg/dL
- IP (6 h): 9.3 mg/dL
- K (6 h): 4 meq/L
- LDH (6 h): 167.6 IU/L
- Na (6 h): 142 meq/L
- PL (6 h): 135.6 mg/dL
- RALB (6 h): 3.3 g/dL
- TBIL (6 h): 0.1 mg/dL
- TC (6 h): 73.8 mg/dL
- TG (6 h): 65.4 mg/dL
- TP (6 h): 5.4 g/dL
- gamma-GTP (6 h): 1 IU/L
- TERMINAL_BW (9 h): 217.1 g
- APTT (9 h): 19 s
- Bas (9 h): 0.4%
- Eos (9 h): 1.2%
- Fbg (9 h): 223.8 mg/dL
- Hb (9 h): 13.6 g/dL
- Ht (9 h): 37.9%
- Lym (9 h): 77%
- MCH (9 h): 21.5 pg
- MCHC (9 h): 36%
- MCV (9 h): 59.8 fL
- Mono (9 h): 2.8%
- Neu (9 h): 18%
- PT (9 h): 12.3 s
- Plat (9 h): 127.9 x10_4/uL
- RBC (9 h): 634.2 x10_4/ul
- Ret (9 h): 7.7%
- WBC (9 h): 93.6 x10_2/uL
- KIDNEY_L (9 h): 1 g
- KIDNEY_R (9 h): 1 g
- KIDNEY_TOTAL (9 h): 2 g
- LIVER (9 h): 9 g
- A/G (9 h): 1.6
- ALP (9 h): 763.4 IU/L
- ALT (9 h): 31.4 IU/L
- AST (9 h): 63.6 IU/L
- BUN (9 h): 9.4 mg/dL
- CRE (9 h): 0.3 mg/dL
- Ca (9 h): 10.6 mg/dL
- Cl (9 h): 103.8 meq/L
- DBIL (9 h): 0.062 mg/dL
- GLC (9 h): 202 mg/dL
- IP (9 h): 10.4 mg/dL
- K (9 h): 3.9 meq/L
- LDH (9 h): 122.2 IU/L
- Na (9 h): 142.2 meq/L
- PL (9 h): 129.8 mg/dL
- RALB (9 h): 3.4 g/dL
- TBIL (9 h): 0.1 mg/dL
- TC (9 h): 70.6 mg/dL
- TG (9 h): 35.4 mg/dL
- TP (9 h): 5.4 g/dL
- gamma-GTP (9 h): 1.2 IU/L
- TERMINAL_BW (24 h): 234.1 g
- APTT (24 h): 20.3 s
- Bas (24 h): 0.6%
- Eos (24 h): 1%
- Fbg (24 h): 221.2 mg/dL
- Hb (24 h): 13.4 g/dL
- Ht (24 h): 37.5%
- Lym (24 h): 77.6%
- MCH (24 h): 21 pg
- MCHC (24 h): 35.7%
- MCV (24 h): 58.9 fL
- Mono (24 h): 2.4%
- Neu (24 h): 18%
- PT (24 h): 11.7 s
- Plat (24 h): 132.6 x10_4/uL
- RBC (24 h): 637.2 x10_4/ul
- Ret (24 h): 7.4%
- WBC (24 h): 98.6 x10_2/uL
- KIDNEY_L (24 h): 1.1 g
- KIDNEY_R (24 h): 1.1 g
- KIDNEY_TOTAL (24 h): 2.2 g
- LIVER (24 h): 11.3 g
- A/G (24 h): 1.6
- ALP (24 h): 911.2 IU/L
- ALT (24 h): 35.8 IU/L
- AST (24 h): 70 IU/L
- BUN (24 h): 16.2 mg/dL
- CRE (24 h): 0.4 mg/dL
- Ca (24 h): 10.8 mg/dL
- Cl (24 h): 103.2 meq/L
- DBIL (24 h): 0.062 mg/dL
- GLC (24 h): 188.4 mg/dL
- IP (24 h): 7.6 mg/dL
- K (24 h): 4 meq/L
- LDH (24 h): 171.8 IU/L
- Na (24 h): 142 meq/L
- PL (24 h): 143 mg/dL
- RALB (24 h): 3.4 g/dL
- TBIL (24 h): 0.1 mg/dL
- TC (24 h): 72.2 mg/dL
- TG (24 h): 77.4 mg/dL
- TP (24 h): 5.6 g/dL
- gamma-GTP (24 h): 1.4 IU/L
